What is called IC50 is the concentration that gives 50% inhibition.

In this test the target is T1, human chemokine receptor 2 isoform B (Homo sapiens, UniProt P41597).
T1 construct: host or cells: CHOK1-CCR2B-A5 (CHO-K1)
T1 sequence (P41597 1-360 isoform P41597-2): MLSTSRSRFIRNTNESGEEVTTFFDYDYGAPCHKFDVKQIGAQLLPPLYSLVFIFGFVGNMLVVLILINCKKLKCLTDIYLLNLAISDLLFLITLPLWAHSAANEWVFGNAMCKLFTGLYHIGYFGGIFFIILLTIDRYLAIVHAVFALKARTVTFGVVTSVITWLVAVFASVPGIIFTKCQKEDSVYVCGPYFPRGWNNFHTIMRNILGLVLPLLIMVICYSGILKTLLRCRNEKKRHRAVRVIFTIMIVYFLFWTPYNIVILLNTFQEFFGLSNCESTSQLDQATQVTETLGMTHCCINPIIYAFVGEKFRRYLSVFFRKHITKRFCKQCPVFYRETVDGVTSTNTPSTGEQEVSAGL
Briefly: Calcium mobilization assay (CHOK1-CCR2B-A5 cells, FLIPR, MCP-1 stimulated). It counts as cell-based. The conditions noted are these: Ca mobilisation assay for CCR2, antagonist activity, 50% inhibition of specific calcium increases after 20 nM MCP-1. On the procedure:
CHOK1-CCR2B-A5 cells (from Euroscreen) stably overexpressing the human chemokine receptor 2 isoform B were cultured in Nutrient Hams F12 medium supplemented with 5% FBS, 100 U/ml penicillin, 100 μg/ml streptomycin, 400 μg/ml G418 and 5 μg/ml puromycin.
For the assay cells were grown overnight in 384-well black clear flat bottom polystyrene plates (Costar) at 37° C. at 5% CO2. After washing with DMEM, 20 mM Hepes, 2.5 mM probenecid, 0.1% BSA (DMEM assay buffer) cells were loaded with 4 μM Fluo-4 in the same DMEM assay buffer for 2 hours at 30° C. Excess dye was removed and cells were washed with DMEM assay buffer. 384-well compound plates were prepared with DMEM assay buffer/0.5% DMSO with or without various concentrations of test compounds. Usually compounds were tested for agonist and antagonist activity.
Test compounds were added to the assay plate and agonist activity was monitored as fluorescence for 80 seconds with a FLIPR (488 nm excitation; 510-570 nm emission; Molecular Devices). After 20-30 min. of incubation at 30° C., 20 nM MCP-1 (R&D; Roche) was added and fluorescence was monitored again for 80 seconds. Increases in intracellular calcium are reported as maximum fluorescence after agonist exposure minus basal fluorescence before exposure. Antagonist activity is indicated as inhibitor concentration required for 50% inhibition of specific calcium increases.
A general note: Calcium assays in cells follow changes in intracellular calcium, usually with a dye or a luminescent sensor.
On to `C[C@H]1C(=O)N2[C@@H](CCN3CCC4(CC4)[C@H](O)C3)COC[C@H]2CN1C(=O)Nc1ccc(Cl)c(Cl)c1` [Example 31, (4S,7S,9aR)-4-[2-((S)-4-Hydroxy-6-aza-spiro[2.5]oct-6-yl)-ethyl]-7-methyl-6-oxo-hexahydro-pyrazino[2,1-c][1,4]oxazine-8-carboxylic acid (3,4-dichloro-phenyl)-amide], for which the IC50 is 1.9 nM.

On to `C[C@H]1C(=O)N2[C@@H](CCC(=O)N3CCC4(CC4)[C@H](O)C3)CO[C@@H]2CN1C(=O)Nc1ccc(C(F)(F)F)c(Cl)c1` [Example 24, (3S,6S,8aR)-3-[3-((S)-4-Hydroxy-6-aza-spiro[2.5]oct-6-yl)-3-oxo-propyl]-6-methyl-5-oxo-hexahydro-oxazolo[3,2-a]pyrazine-7-carboxylic acid (3-chloro-4-trifluoromethyl-phenyl)-amide], for which the half-maximal inhibitory concentration (IC50) was 5.5 nM.

Take `C[C@H]1C(=O)N2[C@@H](CCC(=O)N3CCC4(CC4)[C@H](O)C3)CC[C@H]2CN1C(=O)Nc1ccc(Cl)c(Cl)c1` [Example 42, (3S,6R,8aS)-6-[3-((S)-4-Hydroxy-6-aza-spiro[2.5]oct-6-yl)-3-oxo-propyl]-3-methyl-4-oxo-hexahydro-pyrrolo[1,2-a]pyrazine-2-carboxylic acid (3,4-dichloro-phenyl)-amide]: the IC50 stood at 40.4 nM.

On to `C[C@H]1C(=O)N2[C@@H](CCCN3CCC4(CC4)[C@H](O)C3)CO[C@@H]2CN1C(=O)Nc1cccc(Cl)c1` [Example 20, (3S,6S,8aR)-3-[3-((S)-4-hydroxy-6-aza-spiro[2.5]oct-6-yl)-propyl]-6-methyl-5-oxo-hexahydro-oxazolo[3,2-a]pyrazine-7-carboxylic acid (3-chloro-phenyl)-amide], for which the IC50 stood at 177 nM.

Regarding `O=C(Nc1ccc(Cl)c(Cl)c1)N1CCC(=O)N2[C@@H](CCN3CCC4(CC4)[C@H](O)C3)CC[C@H]2C1` [Example 49, (7R,9aS)-7-[2-((S)-4-Hydroxy-6-aza-spiro[2.5]oct-6-yl)-ethyl]-5-oxo-hexahydro-pyrrolo[1,2-a][1,4]diazepine-2-carboxylic acid (3,4-dichloro-phenyl)-amide], the IC50 came to 144 nM.

In the case of `C[C@H]1C(=O)N2[C@@H](CCN3CCC4(CC4)[C@H](O)C3)CO[C@@H]2CN1C(=O)Nc1ccc(F)c(Cl)c1` [Example 7, (3S,6S,8aR)-3-[2-((S)-4-hydroxy-6-aza-spiro[2.5]oct-6-yl)-ethyl]-6-methyl-5-oxo-hexahydro-oxazolo[3,2-a]pyrazine-7-carboxylic acid (3-chloro-4-fluoro-phenyl)-amide], the IC50 worked out at 25 nM.

For `C[C@H]1C(=O)N2[C@@H](CCC(=O)N3CCC4(CC4)[C@H](O)C3)CCC[C@H]2CN1C(=O)/C=C/c1ccc(F)c(Cl)c1` [Example 62, (3S,6R,9aS)-2-[(E)-3-(3-Chloro-4-fluoro-phenyl)-acryloyl]-6-[3-((S)-4-hydroxy-6-aza-spiro[2.5]oct-6-yl)-3-oxo-propyl]-3-methyl-octahydro-pyrido[1,2-a]pyrazin-4-one], the IC50 came to 220 nM.

As for `C[C@H]1C(=O)N2[C@H](CCN3CCC4(CC4)[C@H](O)C3)COC[C@@H]2CN1C(=O)Nc1ccc(Cl)c(Cl)c1` [Example 40, (4R,7S,9aS)-4-[2-((S)-4-Hydroxy-6-aza-spiro[2.5]oct-6-yl)-ethyl]-7-methyl-6-oxo-hexahydro-pyrazino[2,1-c][1,4]oxazine-8-carboxylic acid (3,4-dichloro-phenyl)-amide], the IC50 turned out to be 340 nM.

Regarding `C[C@H]1C(=O)N2[C@@H](CCN3CCC4(CC4)C(F)(F)C3)COC[C@H]2CN1C(=O)Nc1ccc(Cl)c(Cl)c1` [Example 53, (4S,7S,9aR)—N-(3,4-dichlorophenyl)-4-(2-(4,4-difluoro-6-azaspiro[2.5]octan-6-yl)ethyl)-7-methyl-6-oxohexahydropyrazino[2,1-c][1,4]oxazine-8(1H)-carboxamide], the IC50 came out at 16.7 nM.

Consider `C[C@H]1C(=O)N2[C@@H](CCN3CCC4(CC4)[C@H](O)C3)CO[C@@H]2CN1C(=O)Nc1ccc(Cl)c(Cl)c1` [Example 2, (3S,6S,8aR)-3-[2-((S)-4-hydroxy-6-aza-spiro[2.5]oct-6-yl)-ethyl]-6-methyl-5-oxo-hexahydro-oxazolo[3,2-a]pyrazine-7-carboxylic acid (3,4-dichloro-phenyl)-amide], for which the IC50 was determined as 2.2 nM.

Turning to `C[C@H]1C(=O)N2[C@@H](CCN3CCS(=O)(=O)CC3)COC[C@H]2CN1C(=O)Nc1ccc(Cl)c(Cl)c1` [Example 58, (4S,7S,9aR)-4-[2-(1,1-Dioxo-thiomorpholin-4-yl)-ethyl]-7-methyl-6-oxo-hexahydro-pyrazino[2,1-c][1,4]oxazine-8-carboxylic acid (3,4-dichloro-phenyl)-amide], the IC50 is 414 nM.

With `C[C@H]1C(=O)N2[C@@H](CCC(=O)N3CCC4(CC4)[C@H](O)C3)CCC[C@H]2CN1C(=O)Nc1ccc(Cl)c(Cl)c1` [Example 63, (3S,6R,9aS)-6-[3-((S)-4-Hydroxy-6-aza-spiro[2.5]oct-6-yl)-3-oxo-propyl]-3-methyl-4-oxo-octahydro-pyrido[1,2-a]pyrazine-2-carboxylic acid (3,4-dichloro-phenyl)-amide], the IC50 came out at 10.8 nM.

Take `C[C@H]1C(=O)N2[C@@H](CCN3CCC4(CC4)[C@H](O)C3)CO[C@@H]2CN1C(=O)Nc1cccc(C(F)(F)F)c1` [Example 9, (3S,6S,8aR)-3-[2-((S)-4-hydroxy-6-aza-spiro[2.5]oct-6-yl)-ethyl]-6-methyl-5-oxo-hexahydro-oxazolo[3,2-a]pyrazine-7-carboxylic acid (3-trifluoromethyl-phenyl)-amide]: the IC50 is 68.9 nM.

`C[C@H]1C(=O)N2[C@H](CCN3CCC4(CC4)[C@H](O)C3)CCC[C@@H]2CN1C(=O)Nc1ccc(Cl)c(Cl)c1` [Example 39, (3S,6S,9aR)-6-[2-((S)-4-Hydroxy-6-aza-spiro[2.5]oct-6-yl)-ethyl]-3-methyl-4-oxo-octahydro-pyrido[1,2-a]pyrazine-2-carboxylic acid (3,4-dichloro-phenyl)-amide]: the IC50 was 135 nM.

In the case of `C[C@H]1C(=O)N2[C@@H](CCCN3CCC4(CC4)C(F)(F)C3)COC[C@H]2CN1C(=O)Nc1ccc(Cl)c(Cl)c1` [Example 60, (4S,7S,9aR)—N-(3,4-dichlorophenyl)-4-(3-(4,4-difluoro-6-azaspiro[2.5]octan-6-yl)propyl)-7-methyl-6-oxohexahydropyrazino[2,1-c][1,4]oxazine-8(1H)-carboxamide], the IC50 was 48.2 nM.

As for `C[C@H]1C(=O)N2[C@@H](CCC(=O)N3CCC4(CC4)[C@H](O)C3)COC2(C)CN1C(=O)Nc1ccc(C(F)(F)F)c(Cl)c1` (stereo partly drawn) [Example 37, (3S,6S)-3-[3-((S)-4-Hydroxy-6-aza-spiro[2.5]oct-6-yl)-3-oxo-propyl]-6,8a-dimethyl-5-oxo-hexahydro-oxazolo[3,2-a]pyrazine-7-carboxylic acid (3-chloro-4-trifluoromethyl-phenyl)-amide], the IC50 worked out at 360 nM.

For `C[C@H]1C(=O)N2[C@@H](CCCN3CCC(F)(F)CC3)CC[C@H]2CN1C(=O)Nc1ccc(Cl)c(Cl)c1` [Example 46, (3S,6S,8aS)-6-[3-(4,4-Difluoro-piperidin-1-yl)-propyl]-3-methyl-4-oxo-hexahydro-pyrrolo[1,2-a]pyrazine-2-carboxylic acid (3,4-dichloro-phenyl)-amide], the IC50 turned out to be 26.4 nM.

For the molecule `C[C@H]1C(=O)N2[C@@H](CCCN3CCC4(CC4)[C@H](O)C3)CO[C@H]2CN1C(=O)Nc1ccc(Cl)c(Cl)c1` [Example 17, (3S,6S,8aS)-3-[3-((S)-4-Hydroxy-6-aza-spiro[2.5]oct-6-yl)-propyl]-6-methyl-5-oxo-hexahydro-oxazolo[3,2-a]pyrazine-7-carboxylic acid (3,4-dichloro-phenyl)-amide], the IC50 worked out at 2.9 nM.

`C[C@H]1C(=O)N2[C@@H](CCN3CCC4(CC4)[C@H](O)C3)CCC[C@H]2CN1C(=O)Nc1ccc(Cl)c(Cl)c1` [Example 65, (3S,6R,9aS)-6-[2-((S)-4-Hydroxy-6-aza-spiro[2.5]oct-6-yl)-ethyl]-3-methyl-4-oxo-octahydro-pyrido[1,2-a]pyrazine-2-carboxylic acid (3,4-dichloro-phenyl)-amide]: the IC50 was found to be 2.2 nM.

Regarding `C[C@H]1C(=O)N2[C@@H](CCN3CCC4(CC4)[C@H](O)C3)CO[C@H]2CN1C(=O)Nc1cccc(C(F)(F)F)c1` [Example 8, (3S,6S,8aS)-3-[2-((S)-4-Hydroxy-6-aza-spiro[2.5]oct-6-yl)-ethyl]-6-methyl-5-oxo-hexahydro-oxazolo[3,2-a]pyrazine-7-carboxylic acid (3-trifluoromethyl-phenyl)-amide], the half-maximal inhibitory concentration (IC50) is 146 nM.

Source of the values: patent publication US8471004B2, “Bicyclic compounds” (Hoffman-La Roche Inc., priority 2009, dated 2013).
